# “Also recorded” adds a separate entry of the source. Marks after values point to notes of the source that are not given here.
# Assays:
# [1] = Stability of ^111In-LA-DOTA complex in CSF or brain homogenate (radio-TLC); format: in vitro ADME, rat; conditions: CSF and BH, 37° C., over 48 hours
# Experimental: To obtain CSF and brain homogenate for assessing AuNP stability, rats were anesthetized with subcutaneous ketamine (100 mg/kg) and dexmedetomidine (0.5 mg/kg) and fixed to a stereotaxic frame after verification of loss of response to painful stimuli. The cisterna magna was exposed and CSF was carefully drawn using a syringe and a 30 G needle. The rats were euthanized, the brains were quickly dissected and cut in four quarters. Each quarter was mixed in 5 mL phosphate-buffered saline (PBS) using a homogenizer. Both the CSF and brain homogenates were stored at —80° C. To allow UV-VIS characterization at low radioactivity level, radiolabeled AuNPs were mixed with non-radiolabeled, PEG-coated AuNPs from the same batch (see section 2.2). The gold concentration was the same in both AuNPs samples (0.373 mg/mL). […]
# Free ^111In-LA-DOTA: The following mixtures were prepared and analyzed: 1) CSF (30 μL)+^111In-LA-DOTA complex solution (30 μL), 2) Brain homogenate (15 μL)+PBS (15 μL)+^111In-LA-DOTA complex solution (30 μL). […] The mixtures were incubated at 37° C. and samples were analyzed by radio-TLC at 0, 4, 24, and 48 hours. […]
# [2] = Head-focused SPECT/CT of ^111In—AuNP or ^111In-LA-DOTA infused to the cisterna magna, 0-3 h; format: in vivo, Sprague-Dawley rats; design: AUC0-3 h Striatum / AUC0-3 h Thalamus / AUC0-3 h Intracranial / AUC0-3 h Brain / AUC0-3 h Cervical spine / AUC0-3 h Nasal turbinates / AUC0-3 h Pharyngeal lymph vessel / AUC0-3 h Deep lymph nodes: concentration or dose not given beside the values; conditions: VEH (isotonic saline i.p.)
# Experimental: Cisterna magna cannulation was performed as previously described with minor modifications (Xavier et al. J Vis Exp e57378-e57378 (2018)). Rats were anesthetized with a mixture of ketamine (100 mg/kg) and dexmedetomidine (0.5 mg/kg), administered subcutaneously in a volume of 2 ml/kg. After verification of loss of response to toe pinch, animals were placed in a stereotaxic frame and the neck slightly flexed (30°). The atlanto-occipital membrane overlying the cisterna magna was surgically exposed and a 30 G short-bevelled dental needle connected to PE10 tubing was carefully inserted into the intrathecal space. The catheter was fixed to the dura with cyanoacrylate glue and dental cement.
# For post-operative analgesia, rats that were imaged for 24 hours received 5 mg/kg carprofen (Rimadyl® vet, 50 mg/mL, Orion Pharma, Espoo, Finland) s.c. at the beginning of surgery. Temperature was monitored and normothermia was maintained with a heating pad. […] The total volume of 32 μL was infused over 20 minutes. Five minutes before the AuNP infusion started, rats received either hypertonic saline (1 M, 20 mL/kg i.p.) or isotonic saline (0.154 M, 20 mL/kg i.p.). In the MRI experiments, all rats received a hypertonic saline injection, and the infusion rate of Gd-labelled nanoparticles was the same, but the total infusion volume was 80 μL.
# Radioactivity of the infused dose was measured with VIK-202 dose calibrator (Comecer, Joure, The Netherlands). The Vector4CT (MILabs, Utrecht, Netherlands) system was used for SPECT/CT imaging. SPECT images were acquired with a high energy ultra high resolution rat 1.8 mm pinhole collimator (HE-UHR-RM 1.8 mm ph). Acquired images were reconstructed using Similarity-Regulated Ordered Subsets […] (SROSEM) with a voxel size of 0.6 mm and 5 iterations. Both decays at the 111-In photopeaks (±20%) and background at 20% outside each photopeak window) were individually used for the reconstruction. Two highly accurate energy dependent system matrices for iterative image reconstruction (SROSEM' Vaissier, P. E. B., Beekman, F. J. & Goorden, M. C. Similarity-regulation of OS-EM for accelerated SPECT reconstruction. Physics in Medicine and Biology 61, 4300-4315 (2016)) were used to minimize artifacts in ^111In imaging with high local uptake and no background activity in surrounding structures. In each matrix the effects of energy dependent pinhole penetration (calculated using a ray tracer, Goorden et al. Physics in Medicine and Biology 61, 3712-3733 (2016)) and intrinsic detector resolution with depth of interaction (DOI) effects in the crystal were modelled. The DOI effect was calculated using GATE Monte Carlo simulations (Jan, S. et al. Physics in Medicine and Biology 49, 4543-4561 (2004)) that was stored in tables and used in the raytracer. Matrices were generated for 171 keV and 245 keV photons and were used during the reconstruction from projections of the corresponding energy peaks. The resulting SPECT images were then added and averaged to obtain the final ^111In image. Head and full-body CT images were acquired directly after the SPECT scans in the same imaging session. SPECT data were attenuation corrected, decay corrected to the half-life of ^111In, and corrected for injected activity, with each voxel representing the percentage of the injected dose per cm^3 (%ID/cm^3).
# Head and full-body CT images from each imaging session were nonlinearly registered using Advanced Normalization Tools (ANTs) to the appropriate population-based CT template (described below). Regions of interest (ROIs) were then either drawn manually in on individual CT images, manually in the template space, or were computed automatically in the case of the delineation between CSF and brain described below. Manual ROIs were drawn using ITK-SNAP software. Spherical ROIs (Ø 1.4 mm) for striatum and thalamus were placed using the in-house MRI template as reference. […]
smiles,measurement,setting,value
"O=C(O)CN1CCN(CC(=O)O)CCN(CC(=O)NCCNC(=O)CCCCC2CCSS2)CCN(CC(=O)O)CC1 (stereo not drawn) [^111In-LA-DOTA, 2,2′,2″-(10-(2-((2-(5-(1,2-dithiolan-3-yl)pentanamido)ethyl)amino)-2-oxoethyl)-1,4,7,10-tetraazacyclododecane-1,4,7-triyl)triacetic acid, metal not drawn]",stability of the chelate (release of ^111In from the chelator),[1],stable; also recorded: did not result in appreciable destabilization
same,AUC0-3 h Brain,[2],84.2 ± 13.6^c % ID · h
same,AUC0-3 h CSF,[2],40.2 ± 9.4 % ID · h
same,AUC0-3 h Cervical spine,[2],126.5 ± 30.32 % ID/cm^3 · h
same,AUC0-3 h Deep lymph nodes,[2],0.1 ± 0.1^f % ID/cm^3 · h
same,AUC0-3 h Nasal turbinates,[2],2.4 ± 1.4^b % ID/cm^3 · h
same,AUC0-3 h Pharyngeal lymph vessel,[2],0.5 ± 0.1^d % ID/cm^3 · h
same,AUC0-3 h Striatum,[2],4.5 ± 1.5 % ID/cm^3 · h
same,AUC0-3 h Thalamus,[2],7.5 ± 4.2^k % ID/cm^3 · h
same,Peak tracer mass Brain,[2],39.6 ± 4.3 % ID
same,Peak tracer mass CSF,[2],27.3 ± 3.5 % ID
same,Peak tracer mass Intracranial,[2],65.4 ± 6.0 % ID
same,Peak tracer mass Striatum,[2],4.3 ± 1.6 % ID/cm^3
same,Peak tracer mass Thalamus,[2],8.3 ± 3.1^n % ID/cm^3
same,Residual after 3 h Brain,[2],20.6 ± 5.0^g % ID
same,Residual after 3 h CSF,[2],4.9 ± 1.3 % ID
same,Residual after 3 h Intracranial,[2],25.5 ± 6.2 % ID
same,AUC0-3 h Intracranial,"[2]; intracisternal infusion, rats",124.4 ± 22.5 % ID · h

# Reference: US20220280423A1, “GLYMPHATIC DELIVERY BY MANIPULATING PLASMA OSMOLARITY” (University of Rochester, priority 2018, published 2022)
